Results taken from patent US9200005B2, “Inhibitor compounds of phosphodiesterase type 10A” (AbbVie Deutschland GmbH & Co. KG, priority 2013, dated 2015).
Structures can show the parent of a compound that is named as a salt.

Assays:
PDE10A = PDE10A (UniProt Q9Y233); test: Measurement of PDE activity (HTRF cAMP kit, recombinant PDE10A); assay type: biochemical, human, rat and mouse; conditions: substrate 20 nM, 60 minutes at 29° C.
Experimental: a) Measurement of PDE Activity
The recombinant PDE proteins are used in in vitro enzymatic reaction for measurement of PDE activity. These recombinant proteins, including PDE10A (human, rat and mouse PDE10) and isoforms of PDEs 1, 3, 4, and 5, were purchased from commercial vendor BPS Bioscience. The enzymatic activity of PDEs was determined by cAMP measurement kit from CisBio (IBA) using HTRF technology.
The PDE enzymatic reaction was carried out in assay buffer (20 mM Tris-HCl pH 7.5, 10 mM MgCl2, 0.1% bovine serum albumin) containing enzyme and substrate. […] The substrate cyclic nucleotide (cAMP or cGMP) concentration used in the assay was 20 nM for PDE10, and 100 nM for other PDEs. The inhibitory effect of compound was determined by incubating various concentration of inhibitor in the enzymatic assay. […] Next, the compound at varying concentration was mixed with PDE enzyme. The reaction was initiated by addition of cyclic nucleotide substrate, and incubated for 60 minutes at 29° C. The reaction was stopped by addition of lysis buffer from the assay kit. The cAMP-d2 and anti-cAMP cryptate in the lysis buffer detected the level of cAMP left from the PDE hydrolysis reaction. […] Thus, IC50 value of inhibitor can be obtained by plotting inhibitor concentration against PDE activity at that concentration.

[1] = Determination of the microsomal half-life / microsomal clearance, rat liver microsomes; assay type: in vitro ADME; conditions: 0.5 μM test substance, 0.25 mg of microsomal protein/mL, NADPH, 37° C.
Experimental: (§1) b) Determination of the Microsomal Half-Life:
(§2) The metabolic stability of the compounds of the invention was determined in the following assay.
(§3) The test substances were incubated in a concentration of 0.5 μM as follows:
(§4) 0.5 μM test substance are preincubated together with liver microsomes from different species (from rat, human or other species) (0.25 mg of microsomal protein/mL) in 0.05 M potassium phosphate buffer of pH 7.4 in microtiter plates at 37° C. for 5 min. The reaction is started by adding NADPH (1 mg/mL). After 0, 5, 10, 15, 20 and 30 min, 50 μl aliquots are removed, and the reaction is immediately stopped and cooled with the same volume of acetonitrile. The samples are frozen until analyzed. The remaining concentration of undegraded test substance is determined by MSMS. The half-life (T½) is determined from the gradient of the signal of test substance/unit time plot, it being possible to calculate the half-life of the test substance, assuming first order kinetics, from the decrease in the concentration of the compound with time. The microsomal clearance (mCl) is calculated from mCl=ln 2/T½/(content of microsomal protein in mg/mL)×1000 [mL/min/mg] (modified from references: Di, The Society for Biomoleculur Screening, 2003, 453-462; Obach, DMD, 1999 vol 27. N 11, 1350-1359).

[2] = Determination of the microsomal half-life / microsomal clearance, human liver microsomes; assay type: in vitro ADME; conditions: 0.5 μM test substance, 0.25 mg of microsomal protein/mL, NADPH, 37° C.
Experimental: as §1, §2, §3, §4

| Molecule | IC50 (PDE10A) | Rat mCl [1] | Human mCl [2] |
| --- | --- | --- | --- |
| Cn1ccnc1COc1nn(C)c(=O)c2c(-c3ccncc3)csc12 [Example 56, 5-methyl-7-[(1-methyl-1H-imidazol-2-yl)methoxy]-3-(pyridin-4-yl)thieno[2,3-d]pyridazin-4(5H)-one] | 200 to 500 nM | – | – |
| Cn1nc(-c2cccc(OC(F)(F)F)c2)c2scc(-c3ccncc3)c2c1=O [Example 112, 5-methyl-3-(pyridin-4-yl)-7-[3-(trifluoromethoxy)phenyl]thieno[2,3-d]pyridazin-4(5H)-one trifluoroacetate] | 200 to 500 nM | – | – |
| Cn1nc(-c2cnn(CC(F)(F)F)c2)c2scc(-c3ccncc3)c2c1=O [Example 100, 5-methyl-3-(pyridin-4-yl)-7-[1-(2,2,2-trifruoroethyl)-1H-pyrazol-4-yl]thieno[2,3-d]pyridazin-4(5H)-one bis(trifluoroacetate)] | < 100 nM | – | – |
| Cn1nc(-c2ccnc(F)c2)c2scc(-c3ccncc3)c2c1=O [Example 104, 7-(2-fluoropyridin-4-yl)-5-methyl-3-(pyridin-4-yl)thieno[2,3-d]pyridazin-4(5H)-one bis(trifluoroacetate)] | 100 to 200 nM | – | – |
| methyl 3-({[5-methyl-4-oxo-3-(pyridin-4-yl)-4,5-dihydrothieno[2,3-d]pyridazin-7-yl]oxy}methyl)benzoate trifluoroacetate [Example 72] | < 100 nM | – | – |
| Cn1nc(-c2cccc(F)c2)c2scc(-c3ccncc3)c2c1=O [Example 116, 7-(3-fluorophenyl)-5-methyl-3-(pyridin-4-yl)thieno[2,3-d]pyridazin-4(5H)-one trifluoroacetate] | 200 to 500 nM | – | – |
| Cn1nc(-c2ccncc2)c2scc(-c3cncnc3)c2c1=O [Example 6, 5-methyl-7-(pyridin-4-yl)-3-(pyrimidin-5-yl)thieno[2,3-d]pyridazin-4(5H)-one] | < 100 nM | – | – |
| Cc1ccc(-c2nn(C)c(=O)c3c(-c4ccncc4)csc23)cc1 [Example 121, 5-methyl-7-(4-methylphenyl)-3-(pyridin-4-yl)thieno[2,3-d]pyridazin-4(5H)-one trifluoroacetate] | 100 to 200 nM | – | – |
| CN(C)c1cccc(-c2nn(C)c(=O)c3c(-c4ccncc4)csc23)c1 [Example 119, 7-[3-(dimethylamino)phenyl]-5-methyl-3-(pyridin-4-yl)thieno[2,3-d]pyridazin-4(5H)-one bis(trifluoroacetate)] | < 100 nM | – | – |
| Cn1nc(OCC2CCCCC2)c2scc(-c3ccncc3)c2c1=O [Example 57, 7-(cyclohexylmethoxy)-5-methyl-3-(pyridin-4-yl)thieno[2,3-d]pyridazin-4(5H)-one] | – | + (+: 100-220 μl min^−1 mg^−1) | + (+: 100-220 μl min^−1 mg^−1) |
| 3-(4-fluorophenyl)-5-methyl-7-(pyridin-4-yl)thieno[2,3-d]pyridazin-4(5H)-one [Example 48] | – | ++ (++: <100 μl min^−1 mg^−1) | ++ (++: <100 μl min^−1 mg^−1) |
| Cn1nc(-c2ccncc2)c2scc(-c3ccc(C#N)cc3)c2c1=O.O=C(O)C(F)(F)F [Example 25, 4-[5-methyl-4-oxo-7-(pyridin-4-yl)-4,5-dihydrothieno[2,3-d]pyridazin-3-yl]benzonitrile trifluoroacetate] | – | ++ (++: <100 μl min^−1 mg^−1) | ++ (++: <100 μl min^−1 mg^−1) |
| Cn1nc(-c2ccncc2)c2scc(-c3ccnnc3)c2c1=O [Example 7, 5-methyl-3-(pyridazin-4-yl)-7-(pyridin-4-yl)thieno[2,3-d]pyridazin-4(5H)-one] | – | + (+: 100-220 μl min^−1 mg^−1) | ++ (++: <100 μl min^−1 mg^−1) |
| Cn1nc(OCC2CCN(C(=O)OC(C)(C)C)CC2)c2scc(-c3ccncc3)c2c1=O [Example 79, tert-butyl 4-({[5-methyl-4-oxo-3-(pyridin-4-yl)-4,5-dihydrothieno[2,3-d]pyridazin-7-yl]oxy}methyl)piperidine-1-carboxylate] | – | + (+: 100-220 μl min^−1 mg^−1) | + (+: 100-220 μl min^−1 mg^−1) |
| Cn1nc(-c2ccncc2)c2scc(-c3ccsc3)c2c1=O.O=C(O)C(F)(F)F [Example 34, 5-methyl-7-(pyridin-4-yl)-3-(thiophen-3-yl)thieno[2,3-d]pyridazin-4(5H)-one trifluoroacetate] | – | + (+: 100-220 μl min^−1 mg^−1) | ++ (++: <100 μl min^−1 mg^−1) |
| CN1CCN(c2nn(C)c(=O)c3c(-c4ccncc4)csc23)CC1 [Example 49, 5-methyl-7-(4-methylpiperazin-1-yl)-3-(pyridin-4-yl)thieno[2,3-d]pyridazin-4(5H)-one] | – | ++ (++: <100 μl min^−1 mg^−1) | ++ (++: <100 μl min^−1 mg^−1) |
| O=c1c2c(-c3ccncc3)csc2c(-c2ccncc2)nn1C1CCCC1 [Example 134, 5-cyclopentyl-3,7-di(pyridin-4-yl)thieno[2,3-d]pyridazin-4(5H)-one] | – | + (+: 100-220 μl min^−1 mg^−1) | ∘ (∘ not avialable or >220 μl min^−1 mg^−1) |
| CC(C)c1cccc(COc2nn(C)c(=O)c3c(-c4ccncc4)csc23)c1.O=C(O)C(F)(F)F [Example 65, 5-methyl-7-{[3-(propan-2-yl)benzyl]oxy}-3-(pyridin-4-yl)thieno[2,3-d]pyridazin-4(5H)-one trifluoroacetate] | – | + (+: 100-220 μl min^−1 mg^−1) | ∘ (∘ not avialable or >220 μl min^−1 mg^−1) |
| Cn1nc(-c2ccncc2)c2scc(-c3ccccc3F)c2c1=O.O=C(O)C(F)(F)F [Example 36, 3-(2-fluorophenyl)-5-methyl-7-(pyridin-4-yl)thieno[2,3-d]pyridazin-4(5H)-one trifluoroacetate] | – | ++ (++: <100 μl min^−1 mg^−1) | ++ (++: <100 μl min^−1 mg^−1) |
| Cn1nc(-c2ccncc2)c2scc(-c3ccc4c(c3)CCO4)c2c1=O.O=C(O)C(F)(F)F [Example 35, 3-(2,3-dihydro-1-benzofuran-5-yl)-5-methyl-7-(pyridin-4-yl)thieno[2,3-d]pyridazin-4(5H)-one trifluoroacetate] | – | + (+: 100-220 μl min^−1 mg^−1) | + (+: 100-220 μl min^−1 mg^−1) |
| O=c1c2c(-c3ccncc3)csc2c(-c2ccncc2)nn1CC1CCCO1 (stereo not drawn) [Example 141, 3,7-di(pyridin-4-yl)-5-(tetrahydrofuran-2-ylmethyl)thieno[2,3-d]pyridazin-4(5H)-one] | – | ++ (++: <100 μl min^−1 mg^−1) | + (+: 100-220 μl min^−1 mg^−1) |
| Cn1nc(OC2CCCCC2)c2scc(-c3ccncc3)c2c1=O.O=C(O)C(F)(F)F [Example 53, 7-(cyclohexyloxy)-5-methyl-3-(pyridin-4-yl)thieno[2,3-d]pyridazin-4(5H)-one trifluoroacetate] | – | + (+: 100-220 μl min^−1 mg^−1) | ++ (++: <100 μl min^−1 mg^−1) |
| Cn1nc(N2CCCCC2)c2scc(-c3ccncc3)c2c1=O [Example 47, 5-methyl-7-(piperidin-1-yl)-3-(pyridin-4-yl)thieno[2,3-d]pyridazin-4(5H)-one] | – | + (+: 100-220 μl min^−1 mg^−1) | + (+: 100-220 μl min^−1 mg^−1) |
| N#Cc1cccc(-c2csc3c(-c4ccncc4)nn(CC(F)(F)F)c(=O)c23)c1 [Example 129, 3-[4-oxo-7-(pyridin-4-yl)-5-(2,2,2-trifluoroethyl)-4,5-dihydrothieno[2,3-d]pyridazin-3-yl]benzonitrile] | – | ++ (++: <100 μl min^−1 mg^−1) | ++ (++: <100 μl min^−1 mg^−1) |
| Cn1nc(-c2ccncc2)c2scc(N3CCN(C(=O)OC(C)(C)C)CC3)c2c1=O [Example 5, tert-butyl 4-[5-methyl-4-oxo-7-(pyridin-4-yl)-4,5-dihydrothieno[2,3-d]pyridazin-3-yl]piperazine-1-carboxylate] | – | ++ (++: <100 μl min^−1 mg^−1) | ++ (++: <100 μl min^−1 mg^−1) |
| COc1cccc(-c2csc3c(-c4ccncc4)nn(C)c(=O)c23)c1.O=C(O)C(F)(F)F [Example 30, 3-(3-methoxyphenyl)-5-methyl-7-(pyridin-4-yl)thieno[2,3-d]pyridazin-4(5H)-one trifluoroacetate] | – | + (+: 100-220 μl min^−1 mg^−1) | + (+: 100-220 μl min^−1 mg^−1) |
| Cn1nc(-c2ccncc2)c2scc(-c3ccc(F)cc3)c2c1=O [Example 8, 3-(4-fluorophenyl)-5-methyl-7-(pyridin-4-yl)thieno[2,3-d]pyridazin-4(5H)-one] | – | + (+: 100-220 μl min^−1 mg^−1) | + (+: 100-220 μl min^−1 mg^−1) |
